Measured values from patent publication US20160317419A1, “METHOD OF IMPROVING SKIN HEALTH AND COMPOSITIONS THEREFOR” (The Procter & Gamble Company, priority 2015, published 2016).

Legend:
Type in all cases: cell-based
[1] = tested on: human dermal fibroblasts obtained from the BJ cell line; assay: ECAR Method: glycolytic ATP production rate of fibroblasts exposed to hydrogen peroxide; details: for % Change from Control: vs media control
Description: Glycolytic ATP production by fibroblasts exposed to hydrogen peroxide was determined using an XF Extracellular Flux brand analyzer available from Seahorse Bioscience, Massachusetts The analyzer measured extracellular acidification rate (“ECAR”) in real time, which correlates to glycolytic ATP production. The cells used in this test were frozen human dermal fibroblasts obtained from the BJ cell line commercially available from ATCC, Bethesda, Md. […] The fibroblasts were plated at 8×10^4 cells per well in gelatin-coated plates 24 hours prior to testing. Each well included 100 μL of the culture medium described above. The gelatin-coated plates are prepared by coating each well in a multi-well plate (e.g., 24-well or 96-well plates available from Seahorse Biosciences, Massachusetts) with 0.2% gelatin (protein solution available from Sigma) diluted with phosphate buffered saline (“PBS”). The gelatin is diluted 1:10 to 0.2% in sterile PBS at 37° C., and then 50 uL of the diluted gelatin solution is added to each well and incubated at room temperature for 30 minutes. Excess liquid is removed by aspiration without touching the wells and the surface is allowed to dry for at least 2 hours. Hydrogen peroxide is a well-known ROS, and is used in this example as a source of oxidative stress on the fibroblasts being tested. A stressor solution of hydrogen peroxide was prepared at 10× working concentration in the fibroblast test medium described above. The test agents (i.e., nicotinamide riboside, niacinamide, and nicotinamide riboside+niacinamide in combination) were prepared at 10× the final working concentration in the fibroblast test medium to provide test agent solutions. The stressor solution and the test agent solutions were warmed to 37° C. and pH adjusted to 7.4. A fibroblast test medium was made from Dulbecco's Modified Eagle Medium (available from Seahorse Bioscience), 25 mM glucose and 1 mM pyruvate. The fibroblast test medium was warmed to 37° C. and the pH adjusted to 7.4. The cells were grown and plated at 37° C. and 5% CO2 air. The culture medium in the wells was replaced by the fibroblast test medium 1 hour prior to taking measurements. Each well contained approximately 8×10^4 cells and 600 μL of fibroblast test medium (i.e., DMEM, 25 mM glucose and 1 mM pyruvate) at 37° C. and pH 7.4. The plates containing the samples to be tested were loaded into the analyzer and equilibrated according to the manufacturer's instructions. The test agent solutions and stressor solution were each placed in an automated injection port of the XF cartridge plate. The analyzer was programmed to sequentially run a two minute mix cycle, a two minute wait cycle, and a 3 minute measurement cycle continuously for at least 88 minutes. Data points were collected and recorded by the analyzer. The analyzer was allowed to complete three cycles prior to the addition of a stressor solution or test agent solution to provide a basal ECAR value. After the third cycle was completed (i.e., about 21 minutes after detection began), the test solution and/or stressor solution was added to the wells by the analyzer from the appropriate injection port. A stressor solution was added to the well in sufficient amount to provide 1.5 mM hydrogen peroxide in the well. The test agent solution was added in sufficient amount to provide 250 μM or 500 μM niacinamide or nicotinamide riboside in the well.

keratinocytes = assay: ATP Assay: ATP depletion caused by hydrogen peroxide in keratinocytes (Cell Titer-Glo); details: 1 hour
Description: The keratinocytes were cultured in T150 flasks using EPILIFE brand culture medium (calcium free and phenol red free, supplemented with penicillin/streptomycin and keratinocytes growth supplement, Invitrogen cat# […]500). The keratinocytes were then plated in 24 well plates with 40,000 cells/well and 1 ml of culture medium. After 24 hours, the keratinocytes were treated with 500 uM hydrogen peroxide alone, 400 uM niacinamide, 400 uM nicotinamide riboside or a combination of niacinamide and nicotinamide riboside (400 uM each) for 1 hour. Untreated keratinocytes were used as a control (i.e., keratinocytes in culture medium). The keratinocytes were washed in PBS and ATP levels were measured using the Cell Titer-Glo® brand ATP assay available from Promega, Madison, Wis. as catalogue # G7571/2/3 according to the manufacturer's instructions. Luminescence was measured on a SPECTRAMAX M3 brand microplate reader (Molecular Devices, Sunnyvale, Calif.). The net luminescence for a test sample is calculated by subtracting the observed luminescence value for the control from the observed luminescence value for the test sample.

[2] = tested on: antioxidant response element (ARE); assay: ARE Assay (ARE-32 luciferase reporter cell line); details: 24 hrs, control subtracted
Description: ARE activation was quantitated using the ARE-32 reporter cell line available from CXR-Biosciences as described in the ARE Assay below. ARE-32 is a stable MCF7 cell line containing pGL8x-ARE (8 copies of the rat GST ARE linked to the luciferase gene) and pCDNA3.1, which contains the neomycin selectable marker. Selection was performed in the presence of G418 and resistant clones were isolated. Clones were screened for induction of luciferase in response to tBHQ. The ARE-32 cells are maintained routinely in the DMEM (phenol red free) containing: 10% FBS, 50 units/ml penicillin & 50 μg/ml streptomycin, 0.8 mg/ml G418. Cells are subcultured every 3-4 days. Cells were frozen in medium that contains 90% FBS and 10% DMSO. In a 96 well-plate, seed 1×10^4 cells/well in 100 μl DMEM containing 50 units/ml penicillin, 50 μg/ml streptomycin, 0.8 mg/ml G418 and 10% FBS. Next, incubate the cells at 37° C. in a 5% CO2 incubator for 24 hrs, and then replace the medium with 100 μl fresh media. Treat with test compounds at 2 ul per well, positive control was 25 uM TBHQ. (10 mM tBHQ of stock solution freshly prepared in DMSO). Add 100 ul of media after treatment for a final assay volume of 200 uL. Incubate the cells at 37° C. in the CO2 incubator for another 24 hrs. Assay for luciferase activity with a STEADY-GLO brand assay system according to the manufacturer's instructions. A general schematic for how the ARE reporter assay operates to identify agents that promote transcription off the ARE is described in U.S. Publication No. 2011/0262570. The results of the test are illustrated in Table 1 and FIG. 3. The ARE activity for […] (“NR”), niacinamide (“N”) and the combination of nicotinamide riboside and niacinamide is reported as net luminescence in Table 1. Net luminescence for a test sample is determined by subtracting the luminescence value of the control from the luminescence value of the test sample. The calculated net luminescence for NR+N is the sum of the individual measured luminescence values for NR and N.

[3] = 500 μM test agent with 1.5 mM hydrogen peroxide
[4] = 400 uM (each) with 500 uM hydrogen peroxide

Row | Molecule | Observed ECAR ([1]; 1.5 mM hydrogen peroxide alone) [mpH/min] | % Change from Control ([1]; 1.5 mM hydrogen peroxide alone) [%] | % depletion vs. control (ATP) (keratinocytes; 500 uM hydrogen peroxide alone) [%] | Net Luminescence AVG (keratinocytes; 500 uM hydrogen peroxide alone) | % depletion vs. control (ATP) (keratinocytes; 500 uM hydrogen peroxide alone, listed as H2O2) [%] | Net Luminescence ([2]; NR 0.011 w/v %, N 0.0125 w/v %) | Net Luminescence ([2]; NR 0.021 w/v %, N 0.025 w/v %) | Net Luminescence ([2]; NR 0.042 w/v %, N 0.05 w/v %) | Net Luminescence ([2]; NR 0.0842 w/v %, N 0.1 w/v %) | Observed ECAR [1, 3] [mpH/min] | % Change from Control [1, 3] [%] | % depletion vs. control (ATP) (keratinocytes; [4]) [%] | Net Luminescence AVG (keratinocytes; [4]) | % depletion vs. control (ATP) (keratinocytes; 400 uM (each) with 500 uM hydrogen peroxide, listed as niacinamide) | % depletion vs. control (ATP) (keratinocytes; 400 uM (each) with 500 uM hydrogen peroxide, listed as nicotinamide riboside) [%]
1 | OO [Hydrogen Peroxide, hydrogen peroxide, reference compound] | 8.96 | −70.0 | ~97.5 | 1556 | 97.5 |  |  |  |  |  |  |  |  |  | 
2 | NC(=O)c1cccnc1 [N, niacinamide] |  |  |  |  |  | 13 | 26 | 71 | 75 | 15.35 | −48.6 | 89.7 | 6539 | about 89.7% | 
3 | nicotinamide riboside [NR] |  |  |  |  |  | 205 | 594 | 1845 | 5176 | 14.31 | −52.1 | 96.9 | 1971.5 |  | ~96.9
